The nature of series [1]: Accelerated in vitro release assay, methyl laurate dispersal medium. The format is physicochemical. From the text: In all cases, all EY005 was rapidly released, in some cases within hours, and in all cases by day 3.
Series [2] can be described thus: Release assay of two formulations of EY005 prodrugs in the extended release system. The series is classed as physicochemical. The source says:
FIG. 36 illustrates data from a release assay of two representative formulations of EY005 prodrugs in the extended-release drug delivery system, with different durations of release.
For example, FIG. 36 illustrates release kinetics for examples of two distinct formulations of EY005 prodrugs in the complexation-based XRDDS, each with different conjugation moieties, as described herein: EY005-octadecyl (formulation 1) and EY005-8-mer peptide (formulation 2).

For the next series, the system named is carboxyesterase. Kind of series: In vitro cleavage of the prodrug ester bond by carboxyesterase (HPLC). The series is classed as in vitro ADME. The following applies: 37° C. in vitro, carboxyesterase 0.1 μg/mL. The protocol: One example of an EY005-prodrug includes EY005-stearyl (FIG. 16A), wherein EY005 is linked via ester bond to stearyl alcohol, one member from the group of long-chain saturated fatty alcohols. On cleavage of the ester bond, the prodrug EY005-stearyl releases the EY005 MTT. […] Upon addition of EY005-stearyl prodrug to phosphate-buffered saline solution at 37° C. without esterase, the ester bond of the EY005-stearyl prodrug cleaves more slowly (˜36 hours) by hydrolysis (FIGS. 17A and 17C).
EY005-stearyl was incubated at 37° C. in vitro with carboxyesterase (0.1 μg/mL), to simulate the ocular physiologic environment and the type of esterase that is readily abundant within the vitreous. […] Upon addition of EY005-stearyl prodrug to phosphate-buffered saline solution at 37° C. without esterase, the ester bond of the EY005-stearyl prodrug cleaves more slowly by hydrolysis (FIG. 17C).
FIG. 18 illustrates theoretical data from an in vitro esterase assay showing rapid ester cleavage of two different EY005 prodrugs upon exposure to the esterase.
One specific example of EY005-prodrug includes EY005-stearyl (depicted in FIG. 16A), wherein EY005 is linked via ester bond to stearyl alcohol, one member from the group of long-chain saturated fatty alcohols. On cleavage of the ester bond, the prodrug EY005-stearyl releases the EY005 MTT. […]

For series [3], the system named is retinal pigment epithelium (RPE) cells. Kind of series: Actin cytoskeleton disorganization (phalloidin) in HQ-exposed RPE cells. Conditions: 5 μM. The series is classed as cell-based. The method, then: (§1) Cells are then treated with drug (or control phosphate-buffered saline (PBS) solution) and assayed for effects on mitochondrial dysfunction and other cellular changes.
(§2) Mitochondrial dysfunction can be modeled using in vitro cell culture systems relevant to retinal disease. In one such system, retinal pigment epithelium (RPE) cells are cultured to post-confluence to establish a differentiated cell monolayer and are then assayed for mitochondrial dysfunction and effect of drugs for treatment of mitochondrial dysfunction (FIG. 5). In this model, mitochondrial dysfunction is induced by two exposures to nonlethal doses of hydroquinone (HQ) at day −3 and day 0. Hydroquinone (HQ), a well-known environmental toxicant ubiquitously present in Western lifestyle, is a biochemical inducer of mitochondrial dysfunction. […] Cells are then treated with a drug of interest (mitochondrial targeted peptide drug or a prodrug thereof) or control (phosphate-buffered saline (PBS) solution and assayed for effects on mitochondrial dysfunction, as measured by microscopy of flavoprotein autofluorescence (a measure of mitochondrial electron transport chain complex II decompensation) (FIG. 6).

Series [4] in a line: Hydrophobicity and aqueous solubility. The format is physicochemical.
Series [5] has as its system retinal pigment epithelium (RPE) cells. Put plainly: HQ-induced mitochondrial dysfunction in RPE cells (flavoprotein autofluorescence). The format is cell-based. The following applies: HQ-exposed RPE cells, versus elamipretide or native EY005. The method, then: as §1, §2
The nature of series [6]: Complexation of EY005-stearyl with complexation agent in methyl laurate, HPLC of pulled-down particulates and medium. Conditions: 1 hour. The format is physicochemical. The protocol: As described herein, formation of drug-complex particulates in which the complexation agent has high avidity for the drug can be quantified and verified experimentally. For example, the MTT-prodrug EY005-stearyl was admixed with known quantities of selected individual complexation agents. The EY005-stearyl-complexation agent mixture was then added to an appropriate dispersal medium (in this case, methyl laurate), and centrifuged to “pull down” or separate EY005-stearyl bound to complexation agent from unbound prodrug present in the dispersal medium. HPLC analysis of pulled down particulates and dispersal medium from EY005-stearyl content determined the fraction of MTT-prodrug that is bound to the complexation agent and calculation of the Kd value, the unbound to bound coefficient, for the MTT-prodrug/complexation agent pair. Using this type of assay, Kd values can be generated to identify the unbound to bound drug ratio for specific MTT-prodrug/complexation agent pairs in a selected dispersal medium (see, e.g., Table 2, below).
As described herein, formation of drug-complex particulates in which the complexation agent has high avidity for the drug can be quantified and verified experimentally. For example, the MTT-prodrug EY005-stearyl was admixed with known quantities of selected individual complexation agents. […] HPLC analysis of pulled down particulates and dispersal medium from EY005-stearyl content determined the fraction of MTT-prodrug that is bound to the complexation agent (binding capacity) and calculation of the Kd value, the unbound to bound coefficient, for the MTT-prodrug/complexation agent pair. […]
Table 2 illustrates an example of a EY005-stearyl prodrug solubilized in methyl laurate in which various complexation agents were added, mixed, and incubated for 1 hour. The quantity of EY005-stearyl prodrug complexed with each complexation agent was determined by HPLC. Kd values were calculated as [unbound]/[bound] fraction prodrug under each condition. Binding capacity was calculated as the μg EY005-stearyl complexed per mg complexation agent.

The target in the next series is Albumin (Homo sapiens, UniProt P02768). The series is described as above. The series is classed as binding. Conditions: 1 hour. The protocol:
As described herein, formation of drug-complex particulates in which the complexation agent has high avidity for the drug can be quantified and verified experimentally. For example, the MTT-prodrug EY005-stearyl was admixed with known quantities of selected individual complexation agents. The EY005-stearyl-complexation agent mixture was then added to an appropriate dispersal medium (in this case, methyl laurate), and centrifuged to “pull down” or separate EY005-stearyl bound to complexation agent from unbound prodrug present in the dispersal medium. HPLC analysis of pulled down particulates and dispersal medium from EY005-stearyl content determined the fraction of MTT-prodrug that is bound to the complexation agent and calculation of the Kd value, the unbound to bound coefficient, for the MTT-prodrug/complexation agent pair. […]
As described herein, formation of drug-complex particulates in which the complexation agent has high avidity for the drug can be quantified and verified experimentally. For example, the MTT-prodrug EY005-stearyl was admixed with known quantities of selected individual complexation agents. […]
Table 2 illustrates an example of a EY005-stearyl prodrug solubilized in methyl laurate in which various complexation agents were added, mixed, and incubated for 1 hour. The quantity of EY005-stearyl prodrug complexed with each complexation agent was determined by HPLC. […]

The test system of series [7] is sub-RPE deposits and visual function. Kind of series: APOE4 + high fat diet (HFD) mouse model of dry AMD. The series is classed as in vivo. The following applies: 3 mg/kg subcutaneous. The method, then:
For example, FIG. 2A illustrates the reversal of pre-existing RPE mitochondrial dysfunction and sub-RPE deposits in an ApoE4 mouse model by high-dose elamipretide administered systemically by subcutaneous (SQ) administration (3 mg/kg […]). Aged ApoE4 mice fed a high-fat diet (HFD) develop sub-RPE deposits that reflect the pathobiology of subRPE drusen in patients with dry AMD. ApoE4 mice were treated with elamipretide (n=5; 3 mg/kg SQ daily) or vehicle (n=5) for 4 weeks, continuing HFD from prior 3 mos. […] These untreated mice had thick, severe deposits.

For series [8] the following is noted: human, SQ; cited from earlier work.
For series [9], the system named is patients with dry AMD. The following applies: subcutaneous, once daily; limited by local injection site reactions; cited from earlier work.
Series [10] concerns retinal pigment epithelium (RPE) cells. The following applies: preclinical in vitro models of dry AMD; cited from earlier work.
Series [11] deals with patients with dry AMD. Kind of series: ReCLAIM clinical trial in patients with dry AMD. The format is in vivo, human. Conditions: subcutaneous daily (40 mg). The protocol:
FIG. 3 illustrates summary results of the ReCLAIM study, a phase 1/2 clinical trial of systemically administered (40 mg subcutaneous daily) elamipretide in two cohorts of patients with dry AMD: 1) noncentral geographic atrophy (GA) and 2) high-risk drusen.

The nature of series [12]: Ocular tissue levels of elamipretide in rabbits after subcutaneous or intravitreal administration. The series is classed as in vivo, rabbit. The method, then: For example, maximal systemic dosing of elamipretide is 40 mg daily delivered by subcutaneous route of administration, or approximately […]. […] Meanwhile, peak retina levels following intravitreal injection of 15 μg elamipretide is ˜15 μM. Thus, retinal bioavailability of mitochondrial-targeted peptides following systemic administration of a maximally tolerated dose is suboptimal as compared to intravitreal administration. […] The drug clears from the eye in just a few days, and once a week intravitreal injection in humans is not practical or feasible for treatment of disease in clinical practice. Thus, an extended release drug delivery system is essential to achieve sustained, high levels of drug within the vitreous, retina, and RPE.
Systemic delivery of mitochondrial targeted tetrapeptides by SQ injection have suboptimal efficacy in human patients due to insufficient retinal bioavailability. Sufficient levels of the mitochondrial-targeted tetrapeptides cannot be achieved at the target tissue site (i.e., retina). For example, in humans, maximal dosing is 40 mg SQ (˜0.3-0.9 mg/kg), a dose that is limited by SQ injection site toxicity (FIG. 3). In mice, effective dosing required 3 mg/kg, which is 3-10 fold greater than the mass-adjusted dose in humans. Peak plasma levels are also limited by the drug's rapid blood clearance, and the blood-eye barrier may also impede retinal penetration. […] Thus, higher retinal and choroidal drug levels with continuous drug exposure are desirable.

The source of these data is US20240269292A1.

Structures are written as SMILES. “Also recorded” adds a separate entry of the source. Non-standard residues stand in square brackets, D forms with d. Residues, ends and D or L forms follow the SMILES beside them. *: point of attachment. Dmt = Cc1cc(O)cc(C)c1C[C@H](N)C(=O)O; X1 = CCCCCCCCCCCCCCCCCCO*

Albumin, sequence (P02768 25-609, species assumed): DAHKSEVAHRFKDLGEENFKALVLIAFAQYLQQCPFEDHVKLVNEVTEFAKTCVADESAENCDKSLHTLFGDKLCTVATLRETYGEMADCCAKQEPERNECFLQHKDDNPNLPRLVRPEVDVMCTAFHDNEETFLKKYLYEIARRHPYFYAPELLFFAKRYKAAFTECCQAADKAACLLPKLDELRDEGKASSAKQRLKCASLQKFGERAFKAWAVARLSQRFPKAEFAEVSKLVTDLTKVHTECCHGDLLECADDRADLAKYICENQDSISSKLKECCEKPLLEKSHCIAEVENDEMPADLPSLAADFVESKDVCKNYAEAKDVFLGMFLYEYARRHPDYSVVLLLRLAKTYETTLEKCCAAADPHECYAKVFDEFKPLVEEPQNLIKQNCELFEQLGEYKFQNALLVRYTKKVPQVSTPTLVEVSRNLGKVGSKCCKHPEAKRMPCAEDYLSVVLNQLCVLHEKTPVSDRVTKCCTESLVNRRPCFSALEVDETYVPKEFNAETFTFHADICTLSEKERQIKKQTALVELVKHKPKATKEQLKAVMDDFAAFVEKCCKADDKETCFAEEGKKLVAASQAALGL

On to `CCCCCCCCCCCCCCCCCCOC(=O)[C@H](Cc1ccccc1)NC(=O)[C@H](CCCCN)NC(=O)[C@H](Cc1c(C)cc(O)cc1C)NC(=O)[C@H](N)CCCNC(=N)N` [EY005-stearyl, H-d-Arg-DMT-Lys-Phe(-O)-octadecyl] (H-[dR][Dmt]KF-X1), for which the “Release rate of EY005” value in [1] (magnesium stearate and albumin together) was “intermediate between that of formulations using either complexation agent alone”. The “Release of EY005 into media” value in [1] (no complexation agent) and in series [1] (silica microbeads) was “rapid release” in each case. In series [2] (FIG. 36), the Release kinetics profile entry is “longer initial early burst”. Moreover, the Durability of release in [2] (two-phase kinetics) stood at 120 days. Besides, in the series on carboxyesterase, the “cleavage of the prodrug ester bond, releasing EY005” value was “rapid cleavage of the prodrug ester bond”. In addition, the “Reversal of actin cytoskeleton disorganization” value in [3] is recorded as “normalized actin cytoskeleton dysfunction”. Besides, in series [4], the Hydrophobicity result is on record as “hydrophobic”. Further, in series [5], the “Potency for reversal of mitochondrial dysfunction relative to comparator” value is “efficacy equivalent to treatment with EY005 native peptide”. Moreover, the “μg EY005-stearyl complexed per mg complexation agent” value in [6] (Cyclodextrin gamma) is listed as 2.3 μg per mg; in [6] (Lecithin), 9.5 μg per mg; in [6] (Silica microbeads), 0.2 μg per mg; on Albumin, 4.5 μg per mg.

Regarding `Cc1cc(O)cc(C)c1C[C@H](NC(=O)[C@H](N)CCCNC(=N)N)C(=O)N[C@@H](CCCCN)C(=O)N[C@@H](Cc1ccccc1)C(N)=O` [elamipretide, H-d-Arg-Dmt-Lys-Phe-NH2] (H-[dR][Dmt]KF-NH2), the “visual function (ERG B-wave amplitudes)” value in series [7] is “increased B-wave amplitudes; also recorded: partially improved visual function”. Besides, the Dose-limiting toxicity result in series [8] was “local injection site reactions”. In addition, in the series with patients with dry AMD [9], the “maximally tolerated dose in humans” value is given as 40 mg. The “Reversal of mitochondrial dysfunction in RPE cell culture” value in series [10] was “potent for reversal of mitochondrial dysfunction”. Also, in series [4] (native form), the Aqueous solubility entry is reported as “high aqueous solubility”. In addition, in the series on patients with dry AMD [11], the “Low-luminance visual acuity / visual function” value is listed as “general mean trend toward improvement in multiple metrics of visual function”. For the same molecule, the “peak retina levels following intravitreal injection” value in series [12] (intravitreal injection of 15 μg) was approximately 15 µM. Moreover, in [12] (rabbit, subcutaneous 1 mg/kg), the “choroid levels after 4 hours” value is “undetectable”, the “drug in the retina after subcutaneous administration” value is “no drug is detected in the retina” and the “peak choroid levels at 1 hour” value is listed as approximately 50 nM.
